From patent publication US8754104B2, “Crystalline salts of quinoline compounds and methods for preparing them” (Active Biotech AB, priority 2004, dated 2014)
Counter-ions that a name gives are not always drawn. Like-named read-outs stand apart in the source and are kept apart here. Values belong to the molecule of their own block, whether it stands above or below them.

Assays:
[1] = Investigation of the degradation rate (reactivity index) in solution; assay type: physicochemical; conditions: 1-% 0.01M hydrochloric acid in n-propanol, 45 to 60° C., HPLC; relative to Roquinimex defined to 1.0; index 2.0 = 26% per hour
Description: The degradation rate, hereinafter called the reactivity index, of compound of formula (I) was determined in solution. Roquinimex (Merck Index 12th Ed., No. 8418; Linomide®, LS2616, N-methyl-N-phenyl-1,2-dihydro-4-hydroxy-1-methyl-2-oxo-3-quinolinecarboxamide) was selected as a reference compound with the reactivity index defined to 1.0. A medium of 1-% 0.01M hydrochloric acid in n-propanol was selected. The reaction temperature was in the range of 45 to 60° C. The 3-quinolinecarboxamide derivative of formula (I) was added to the n-propanol solution. The reaction transfers the compound to an n-propylester. The reaction was stopped after 0, 2 and 4 hours, and analysis was carried out by means of HPLC with UV detection. The disappearance of the 3-quinolinecarboxamide derivative was used for evaluation of the reactivity index, but as an alternative also the formation of the n-propylester may be used. A reactivity index of […] at 60° C., a reactivity index of 2.0 corresponds to a degradation rate of 26% per hour etc.

[2] = Solubility in water at room temperature; assay type: physicochemical; conditions: for solubility: water
[3] = assay type: physicochemical; conditions: for Degradation (percentage increase of related substances): 6 months
Description: Upon storage without any special precautions being taken, some 3-quinolinecarboxamide derivatives of formula (I) are degraded at an unacceptable rate. At storage during accelerated conditions, that is 40° C. and a relative humidity of 75%, the degradation of some 3-quinoline-carboxamide derivatives can exceed 2% in a period of 6 months (Table 1).
This is evident from a comparison of N-ethyl-N-phenyl-5-chloro-1,2-dihydro-4-hydroxy-1-methyl-2-oxo-3-quinolinecarboxamide (hereinafter called compound A) with the sodium salt of N-ethyl-N-phenyl-5-chloro-1,2-dihydro-4-hydroxy-1-methyl-2-oxo-3-quinolinecarboxamide (hereinafter called compound A sodium). While at 40° C. and a relative humidity of 75% less than 0.01% of compound A sodium in solid state is converted to degradation products in a period of 24 months, 0.31% of compound A is degraded during a 6-month period. Another example of a 3-quinolinecarboxamide derivative susceptible to degradation is N-ethyl-N-phenyl-5-ethyl-1,2-dihydro-4-hydroxy-1-methyl-2-oxo-3-quinolinecarboxamide (hereinafter called compound B), see Table 1.

[4] = Compatibility study, binary mixtures (1:1) of excipient and test substance; assay type: physicochemical
Excerpt: Generally, any tendency of instability is exacerbated when a compound of formula (II) is formulated with various excipients. It is clear that the salt form is preferred as drug substance in any binary mixtures of said compound.

[5] = 1:1 mixture with Colloidal silica (Aerosil 200), +40° C./75% RH, 6 months
[6] = 1:1 mixture with Maize Starch, +40° C./75% RH, 6 months
[7] = 1:1 mixture with Mannitol (Pearlitol 200SD), +40° C./75% RH, 6 months
[8] = 1:1 mixture with Microcrystalline Cellulose (Avicel PH-, +40° C./75% RH, 6 months)

Reactivity index [1]: 2.6
SMILES: CN(C(=O)c1c(O)c2c(Cl)cccc2n(C)c1=O)c1ccc(F)cc1F [Compound C, N-methyl-N-(2,4-difluorophenyl)-5-chloro-1,2-dihydro-4-hydroxy-1-methyl-2-oxo-3-quinolinecarboxamide]

solubility ([2]; room temperature): 300 µg/mL
SMILES: CCc1cccc2c1c(O)c(C(=O)N(CC)c1ccccc1)c(=O)n2C [Example 7, N-Ethyl-N-phenyl-5-ethyl-1,2-dihydro-4-hydroxy-1-methyl-2-oxo-3-quinolinecarboxamide zinc salt]

solubility ([2]; room temperature): 18000 µg/mL
SMILES: CCc1cccc2c1c(O)c(C(=O)N(CC)c1ccccc1)c(=O)n2C.[Li] [Example 5, N-Ethyl-N-phenyl-5-ethyl-1,2-dihydro-4-hydroxy-1-methyl-2-oxo-3-quinolinecarboxamide lithium salt]

Solubility in water ([2]; room temperature): 300 µg/mL
SMILES: CCc1cccc2c1c(O)c(C(=O)N(CC)c1ccccc1)c(=O)n2C.[Ca] [Example 6A, Crystalline N-Ethyl-N-phenyl-5-ethyl-1,2-dihydro-4-hydroxy-2-methyl-2-oxo-3-quinolinecarboxainide calcium salt]

Reactivity index [1]: >10
SMILES: CCN(C(=O)c1c(O)c2c(SC)cccc2n(C)c1=O)c1ccccc1 [Compound F, N-ethyl-N-phenyl-5-methylthio-1,2-dihydro-4-hydroxy-1-methyl-2-oxo-3-quinolinecarboxamide]

Reactivity index [1]: 2.9
SMILES: CCN(C(=O)c1c(O)c2c3c(ccc2n(C)c1=O)OCO3)c1ccccc1 [Compound E, N-ethyl-N-phenyl-5,6-methylenedioxy-1,2-dihydro-4-hydroxy-1-methyl-2-oxo-3-quinolinecarboxamide]

“Shelf-life” (storage time without degradation exceeding 0.5%) [3]: >6 months
Degradation (percentage increase of related substances) [3]: <0.01%^3
Converted to degradation products ([3]; 24 months): less than 0.01%
Degradation (percentage increase of related substances) [4, 5]: 1.5%
Degradation (percentage increase of related substances) [4, 6]: 0.05%
Degradation (percentage increase of related substances) [4, 7]: 0.05%
Degradation (percentage increase of related substances) [4, 8]: 0.31%
solubility ([2]; room temperature): 138000 µg/mL
SMILES: CCN(C(=O)c1c(O)c2c(Cl)cccc2n(C)c1=O)c1ccccc1.[Na] [Compound A sodium, N-Ethyl-N-phenyl-5-chloro-1,2-dihydro-4-hydroxy-1-methyl-2-oxo-3-quinolinecarboxamide sodium salt]

“Shelf-life” (storage time without degradation exceeding 0.5%) [3]: >6 months
Degradation (percentage increase of related substances) [3]: 0.31%
Degradation (percentage increase of related substances) [4, 5]: 20%
Degradation (percentage increase of related substances) [4, 6]: 0.41%
Degradation (percentage increase of related substances) [4, 7]: 0.45%
Degradation (percentage increase of related substances) [4, 8]: 1.1%
Reactivity index [1]: 3.1
SMILES: CCN(C(=O)c1c(O)c2c(Cl)cccc2n(C)c1=O)c1ccccc1 [Compound A, N-ethyl-N-phenyl-5-chloro-1,2-dihydro-4-hydroxy-1-methyl-2-oxo-3-quinolinecarboxamide]

“Shelf-life” (storage time without degradation exceeding 0.5%) [3]: <1 months
Degradation (percentage increase of related substances) [3]: 2.0%
Reactivity index [1]: 4.6
SMILES: CCc1cccc2c1c(O)c(C(=O)N(CC)c1ccccc1)c(=O)n2C [Compound B, N-ethyl-N-phenyl-5-ethyl-1,2-dihydro-4-hydroxy-1-methyl-2-oxo-3-quinolinecarboxamide]

Solubility in water (in words) [2]: sparingly soluble in water
solubility ([2]; room temperature): ~1000 µg/mL
SMILES: CCN(C(=O)c1c(O)c2c(Cl)cccc2n(C)c1=O)c1ccccc1 [Example 3, N-Ethyl-N-phenyl-5-chloro-1,2-dihydro-4-hydroxy-1-methyl-2-oxo-3-quinolinecarboxamide calcium salt]

Reactivity index [1]: 1.0
SMILES: CN(C(=O)c1c(O)c2ccccc2n(C)c1=O)c1ccccc1 [Roquinimex, N-methyl-N-phenyl-1,2-dihydro-4-hydroxy-1-methyl-2-oxo-3-quinolinecarboxamide, reference compound]

Reactivity index [1]: >10
SMILES: Cc1cccc2c1c(O)c(C(=O)N(C)c1ccc(C(F)(F)F)cc1)c(=O)n2C [Compound D, N-methyl-N-(4-trifluorophenyl)-1,2-dihydro-1,5-dimethyl-4-hydroxy-1-methyl-2-oxo-3-quinolinecarboxamide]
